In patent publication EP1731520A1, “Pyrrolo[2,3-d]pyrimidine derivatives which are antagonists of adenosine A1, A2A, and A3” (OSI Pharmaceuticals, Inc., priority 1999, dated 2001):
Like-named read-outs stand apart in the source and are kept apart here.

Tests used:
[1] = test system: human A1 adenosine receptor; details: synthetic agonist; cited from earlier work
human A3 receptor = target: T1, human A3 receptor (Homo sapiens, UniProt P0DMS8); experiment: Displacement binding of [3H]CPX, yeast membranes expressing hA3R
T1 sequence (P0DMS8 1-318): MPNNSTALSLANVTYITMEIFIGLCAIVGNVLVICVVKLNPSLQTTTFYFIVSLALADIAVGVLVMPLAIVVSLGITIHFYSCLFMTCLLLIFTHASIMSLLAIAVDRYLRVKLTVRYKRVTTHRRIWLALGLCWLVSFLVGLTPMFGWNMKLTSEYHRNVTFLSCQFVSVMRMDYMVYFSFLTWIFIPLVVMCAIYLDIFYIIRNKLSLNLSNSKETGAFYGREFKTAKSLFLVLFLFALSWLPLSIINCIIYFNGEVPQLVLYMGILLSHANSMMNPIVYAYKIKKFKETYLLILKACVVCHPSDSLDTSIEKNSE

[2] = target: human adenosine A1 receptor (Homo sapiens, UniProt P30542); experiment: Yeast β-Galactosidase reporter gene assay (strain CY12660): inhibition of NECA-induced β-Galactosidase activity; details: read-out: Al Yeast IC50
[3] = target: human A1 receptor subtype (Homo sapiens, UniProt P30542)
[4] = target: human A2a receptor subtype (Homo sapiens, UniProt P29274); experiment: Adenosine 2a receptor subtype competition radioligand binding, [3H] CGS-21680, HEK293 membranes; details: for Ki-A2a (selectivity versus other three subtypes): Table 16, Adenosine A2a Receptor Selective Compounds
[5] = target: T2, human A2b receptor subtype (Homo sapiens, UniProt P29275); experiment: Adenosine 2b receptor subtype competition radioligand binding, [3H] DPCPX, HEK293 membranes
T2 sequence (P29275 1-332): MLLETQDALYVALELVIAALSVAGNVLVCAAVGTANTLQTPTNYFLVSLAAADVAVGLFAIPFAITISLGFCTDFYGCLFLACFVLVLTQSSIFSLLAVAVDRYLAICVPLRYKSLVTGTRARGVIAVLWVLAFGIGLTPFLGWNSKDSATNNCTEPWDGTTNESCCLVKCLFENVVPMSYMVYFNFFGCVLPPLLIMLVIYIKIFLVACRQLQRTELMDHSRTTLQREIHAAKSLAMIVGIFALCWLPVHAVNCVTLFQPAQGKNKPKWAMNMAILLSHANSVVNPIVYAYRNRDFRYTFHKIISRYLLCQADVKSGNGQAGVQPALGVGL

[6] = target: T3, human A3 receptor subtype (Homo sapiens, UniProt P0DMS8); experiment: Adenosine 3 receptor competition radioligand binding, [125I] AB-MECA, HEK293 membranes; details: for Ki-A3 (selectivity versus other three subtypes): Table 17, Adenosine A3 Receptor Selective Compounds
T3 sequence (P0DMS8 1-318): T1 sequence (P0DMS8 1-318)

human A2a receptor = details: read-out: Reported Ki; agonist; cited from earlier work
[7] = read-out: Binding Ki (nM) A2a, Table 13
[8] = read-out: Binding Ki (nM) A2b, Table 13

human A1 receptor subtype, sequence (P30542 whole entry): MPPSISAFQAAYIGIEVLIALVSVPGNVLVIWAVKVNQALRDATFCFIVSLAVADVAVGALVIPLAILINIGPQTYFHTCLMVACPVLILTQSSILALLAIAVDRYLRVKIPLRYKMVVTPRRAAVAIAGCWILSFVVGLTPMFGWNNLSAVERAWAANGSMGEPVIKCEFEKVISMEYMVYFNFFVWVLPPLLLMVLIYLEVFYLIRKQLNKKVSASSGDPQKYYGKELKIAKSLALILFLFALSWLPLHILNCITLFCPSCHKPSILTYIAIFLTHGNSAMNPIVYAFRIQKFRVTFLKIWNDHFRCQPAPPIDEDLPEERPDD
human A2a receptor subtype, sequence (P29274 whole entry): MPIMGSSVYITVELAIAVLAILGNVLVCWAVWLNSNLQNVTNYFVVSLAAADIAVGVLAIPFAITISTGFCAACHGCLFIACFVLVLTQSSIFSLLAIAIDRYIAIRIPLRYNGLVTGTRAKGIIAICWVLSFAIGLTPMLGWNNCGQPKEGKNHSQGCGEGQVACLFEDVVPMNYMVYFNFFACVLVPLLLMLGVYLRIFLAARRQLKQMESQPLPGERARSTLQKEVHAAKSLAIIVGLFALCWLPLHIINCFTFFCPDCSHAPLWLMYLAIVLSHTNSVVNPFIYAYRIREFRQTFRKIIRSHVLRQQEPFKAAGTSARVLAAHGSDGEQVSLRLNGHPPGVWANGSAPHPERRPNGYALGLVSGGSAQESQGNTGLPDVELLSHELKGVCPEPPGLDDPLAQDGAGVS
human adenosine A1 receptor, sequence (P30542 whole entry): as the sequence (P30542 whole entry) above

In the case of `CC(Cc1ccccc1)Nc1ncnc2c1ncn2[C@@H]1O[C@H](CO)[C@@H](O)[C@H]1O` (single isomer, unassigned; (-)) [PIA, (-)-N6-(2-phenylisopropyl)-adenosine], the reported affinity [1] is given as “approximately 50 nM”.
`Nc1nc2ccc(Cl)cc2c2nc(-c3ccco3)nn12` [CGS-15943] showed an IC50 (human A3 receptor) of 55.5 nM.
`Cc1[nH]c2nc(-c3ccsc3)nc(N[C@H]3CC[C@H](O)CC3)c2c1C` [Compound 704] showed an IC50 ([2]; Table 7, Effect of C2-Substituent) of 297 nM and a Ki ([3]; read-out: Al Binding Ki, Table 7, Effect of C2-Substituent) of 61.1 nM.
For `Cc1[nH]c2nc(-c3ccccc3)nc(NCCCO)c2c1C` [Compound 1015], the IC50 ([2]; Table 10, Effect of N6-Substituent) was 3710 nM.
In the case of `CC(=O)NCCNc1nc(-c2ccccc2)nc2[nH]c(C)c(C)c12` [Compound 1300], the Ki [4, 7] is reported as 18 to 48.6 nM.
For `CNC(=O)NCCCNc1nc(-c2ccccc2)nc2[nH]c(C)c(C)c12` [Compound 1310], the activity at 10 µM ([4]; read-out: % activity @ 10 µM, A2a) was 76%.
For `Cc1[nH]c2nc(-c3ccccc3)nc(NCCNC(=O)C3(N)CC3)c2c1C` [Compound 1313], the “% activity @ 10 µM, A2a” value ([4]; Table 13, in %, 10 µM) was 65% and the “% activity @ 10 µM, A1” value ([3]; Table 13, in %, 10 µM) was 30%.
For `Cc1[nH]c2nc(-c3ccccc3)nc(NCCCNC(=O)CCN)c2c1C` [Compound 1315], the Ki [5, 8] was 3.4 nM, the Ki ([6]; read-out: Binding Ki (nM) A3, Table 13) was 507 nM and the Ki [4, 7] was 720 nM. For the same compound, the Ki ([3]; read-out: Binding Ki (nM) A1, Table 13, Profile of Selective Adenosine Antagonists) was 75 nM.
With `Cc1[nH]c2nc(-c3ccccc3)nc(NCCCNC(=O)CN)c2c1C` [Compound 1316] the Ki [5, 8] was 710 nM, the Ki [6] was 97 nM and the “Ki-A3 (selectivity versus other three subtypes)” value [6] was “* (at least 10 times more selective than other three subtypes.)”. For the same compound, the Ki [4, 7] was 710 nM.
Compound `O[C@H]1CC[C@H](Nc2nc(-c3ccccc3)nc3[nH]ccc23)CC1` [Compound 1318] has a Ki [5] of 2310 ± 926 nM and a Ki [6] of 630 ± 76 nM.
`O[C@H]1CC[C@H](Nc2nc(-c3cccc(F)c3)nc3[nH]ccc23)CC1` [Compound 1319, 4-(trans-4-hydroxycyclohexyl)amino-2-(3-fluorophenyl)-7H-pyrrolo [2,3d] pyrimidine] gave a Ki [5] of 802 nM, a Ki [6] of 270 nM and a Ki [4] of 206 nM.
Work on `O[C@H]1CC[C@H](Nc2nc(-c3cccc(Cl)c3)nc3[nH]ccc23)CC1` [Compound 1320, 4-(trans-4-hydroxycyclohexyl)amino-2-(3-chlorophenyl)-7H-pyrrolo[2,3d] pyrimidine] yielded a Ki [5] of 530 nM, a Ki [6] of 419 nM and a Ki [4] of 531 nM.
`O[C@H]1CC[C@H](Nc2nc(-c3ccncc3)nc3[nH]ccc23)CC1` [Compound 1321, 4-(trans-4-hydroxycyclohexyl)amino-2-(4-pyridyl)-7H-pyrrolo[2,3d]pyrimidine] showed a Ki [5] of 1030 nM, an activity at 10 µM ([6]; read-out: % activity @ 10 µM, A3) of 54% and a Ki [4] of 131 nM.
`CC(=O)NCCNc1nc(-c2ccccc2)nc2[nH]c(CNc3ccccc3)cc12` [Compound 1404] gave a Ki ([4]; read-out: Binding Data Ki (nM) A2a, Table 14) of 31 nM.
With `NC(=O)[C@H]1CCCN1c1nc(-c2cccc(F)c2)nc2[nH]ccc12` [Compound 1600] the “Ki-A2a (selectivity versus other three subtypes)” value [4] was “* (at least 5 times more selective than other three subtypes.)”.
For `OC[C@H]1CCCN1c1nc(-c2ccncc2)nc2[nH]ccc12` [Compound 1601], the “Ki-A2a (selectivity versus other three subtypes)” value [4] was “* (at least 5 times more selective than other three subtypes.)”.
In the case of `NC(=O)[C@H]1CCCN1c1nc(-c2ccncc2)nc2[nH]ccc12` [Compound 1602], the “Ki-A2a (selectivity versus other three subtypes)” value [4] is reported as “* (at least 5 times more selective than other three subtypes.)”.
In the case of `OC[C@H]1CCCN1c1nc(-c2ccccc2)nc2[nH]ccc12` [Compound 1603], the “Ki-A2a (selectivity versus other three subtypes)” value [4] is reported as “* (at least 5 times more selective than other three subtypes.)”.
With `c1ccc(-c2cc3c(N4CCNCC4)nc(-c4ccncc4)nc3[nH]2)cc1` [Compound 1604] the “Ki-A2a (selectivity versus other three subtypes)” value [4] was “* (at least 5 times more selective than other three subtypes.)”.
With `OC[C@H]1C[C@@H](O)CN1c1nc(-c2ccncc2)nc2[nH]ccc12` [Compound 1605] the “Ki-A2a (selectivity versus other three subtypes)” value [4] was “* (at least 5 times more selective than other three subtypes.)”.
For `COC(=O)C(C)(C)NCc1cc2c(N3CCC[C@@H]3CO)nc(-c3ccccc3)nc2[nH]1` [Compound 1606], the “Ki-A2a (selectivity versus other three subtypes)” value [4] was “* (at least 5 times more selective than other three subtypes.)”.
With `OCC1CCCN(c2nc(-c3ccncc3)nc3[nH]ccc23)C1` (centres unmarked) [Compound 1607] the “Ki-A2a (selectivity versus other three subtypes)” value [4] was “* (at least 5 times more selective than other three subtypes.)”.
For `CC(=O)NCCNc1nc(-c2ccncc2)nc2[nH]c(C)c(CN(C)Cc3ccccc3)c12` [Compound 1608], the “Ki-A2a (selectivity versus other three subtypes)” value [4] was “* (at least 5 times more selective than other three subtypes.)”.
With `CNC(=O)NCCCNc1nc(-c2ccc(Cl)cc2)nc2[nH]ccc12` [Compound 1719] the “Ki-A3 (selectivity versus other three subtypes)” value [6] was “* (at least 10 times more selective than other three subtypes.)”.
With `c1ccc(-c2nc(NCCc3cnc[nH]3)c3cc[nH]c3n2)cc1` [Compound 1720, [2-(3H-Imidazol-4-yl)-ethyl]-(2-phenyl-7H-pyrrolo[2,3-d]pyrimidin-4-yl)-amine] the “A3 receptor binding affinity relative to reference compound 1308” value ([6]; competition radio ligand binding) was “greater than 10 times”.
